biological target: T1, Hyaluronidase-1 (Homo sapiens, UniProt Q12794); assay: Inhibition of hyaluronidase
T1 sequence (Q12794 whole entry): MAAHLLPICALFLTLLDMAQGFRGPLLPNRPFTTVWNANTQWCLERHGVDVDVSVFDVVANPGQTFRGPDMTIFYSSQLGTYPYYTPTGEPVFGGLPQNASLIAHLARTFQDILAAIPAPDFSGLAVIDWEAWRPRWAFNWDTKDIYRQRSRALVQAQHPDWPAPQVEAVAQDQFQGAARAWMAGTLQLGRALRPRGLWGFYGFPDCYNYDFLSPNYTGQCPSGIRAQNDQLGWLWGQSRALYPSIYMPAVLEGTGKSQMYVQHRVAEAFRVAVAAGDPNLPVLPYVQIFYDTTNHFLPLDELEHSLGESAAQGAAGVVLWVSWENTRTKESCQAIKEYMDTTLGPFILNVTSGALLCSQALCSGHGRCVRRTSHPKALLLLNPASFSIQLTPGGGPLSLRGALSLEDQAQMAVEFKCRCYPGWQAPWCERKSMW

IC50	SMILES
173 µM	O=C(/C=C/c1ccc(O)c(O)c1)O[C@H](C(=O)O)[C@](O)(Cc1ccccc1)C(=O)O [CIMICIFUGIC ACID M]
545 µM	O=C(/C=C/c1ccc(O)c(O)c1)O[C@H](Cc1ccc(O)c(O)c1)C(=O)O [ROSMARINIC ACID]
120 µM	COc1ccc(/C=C\C(=O)O[C@H](C(=O)O)[C@](O)(Cc2ccc(O)c(O)c2)C(=O)O)cc1OC [CIMICIFUGIC ACID N]
> 2000 µM	COc1cc(/C=C/C(=O)O)ccc1O [FERULATE]
102 µM	COc1ccc(/C=C/C(=O)O[C@H](C(=O)O)[C@](O)(Cc2ccc(O)cc2)C(=O)O)cc1OC [CIMICIFUGIC ACID L]
255 µM	O=C(/C=C/c1ccc(O)cc1)O[C@H](C(=O)O)[C@](O)(Cc1ccc(O)cc1)C(=O)O [CIMICIFUGIC ACID K]

SMILES	IC50
O=C(O)/C=C/c1ccc(O)c(O)c1 [CAFFEIC ACID]	> 2000 µM
